What was measured:
RIPK4 = biological target: T1, RIPK4 (Homo sapiens, UniProt P57078); test: KINOMEscan at 1 μM, RIPK4; type: binding; conditions: 1000 nM, read-out: Percent Control
T1 construct: purchased Eurofins DiscoverX KINOMEscan
Source text: (§1) Supplement cells-12-00287-s001.zip/File S2. KinomeScan data for the CAMKK2 probe and negative control.xlsx, sheet "SGC-CAMKK2-1N" | column: Percent Control

EGFR(T790M) = biological target: T2, EGFR(T790M) (Homo sapiens, UniProt P00533, T790M); test: KINOMEscan at 1 μM, EGFR(T790M); type: binding; conditions: 1000 nM, read-out: Percent Control
T2 construct: purchased Eurofins DiscoverX KINOMEscan
Source text: as §1

PLK2 = biological target: T3, PLK2 (Homo sapiens, UniProt Q9NYY3); test: KINOMEscan at 1 μM, PLK2; type: binding; conditions: 1000 nM, read-out: Percent Control
T3 construct: purchased Eurofins DiscoverX KINOMEscan
Source text: as §1

AURKC = biological target: T4, AURKC (Homo sapiens, UniProt Q9UQB9); test: KINOMEscan at 1 μM, AURKC; type: binding; conditions: 1000 nM, read-out: Percent Control
T4 construct: purchased Eurofins DiscoverX KINOMEscan
Source text: as §1

ERK4 = biological target: T5, ERK4 (Homo sapiens, UniProt P31152); test: KINOMEscan at 1 μM, ERK4; type: binding; conditions: 1000 nM, read-out: Percent Control
T5 construct: purchased Eurofins DiscoverX KINOMEscan
Source text: as §1

EPHB2 = biological target: T6, EPHB2 (Homo sapiens, UniProt P29323); test: KINOMEscan binding assay at 1 μM, EPHB2; conditions: Compound Concentration 1000 nM; read-out: Percent Control
T6 construct: purchased Eurofins DiscoverX KINOMEscan
Source text: as §1

ROS1 = biological target: T7, ROS1 (Homo sapiens, UniProt P08922); test: KINOMEscan binding assay at 1 μM, ROS1; conditions: Compound Concentration 1000 nM; read-out: Percent Control
T7 construct: purchased Eurofins DiscoverX KINOMEscan
Source text: as §1

[1] = biological target: T8, RSK1(Kin.Dom.2-C-terminal) (Homo sapiens, UniProt Q15418); test: KINOMEscan at 1 μM, RSK1(Kin.Dom.2-C-terminal); type: binding; conditions: 1000 nM, read-out: Percent Control
T8 construct: RSK1(Kin.Dom.2-C-terminal); purchased Eurofins DiscoverX KINOMEscan
Source text: as §1

[2] = biological target: T9, ABL1(H396P)-phosphorylated (Homo sapiens, UniProt P00519, H396P); test: KINOMEscan at 1 μM, ABL1(H396P)-phosphorylated; type: binding; conditions: 1000 nM, read-out: Percent Control
T9 construct: purchased Eurofins DiscoverX KINOMEscan
Source text: as §1

MEK6 = biological target: T10, MEK6 (Homo sapiens, UniProt P52564); test: KINOMEscan at 1 μM, MEK6; type: binding; conditions: 1000 nM, read-out: Percent Control
T10 construct: purchased Eurofins DiscoverX KINOMEscan
Source text: as §1

PIK3CB = biological target: T11, PIK3CB (Homo sapiens, UniProt P42338); test: KINOMEscan at 1 μM, PIK3CB; type: binding; conditions: 1000 nM, read-out: Percent Control
T11 construct: purchased Eurofins DiscoverX KINOMEscan
Source text: as §1

EPHA7 = biological target: T12, EPHA7 (Homo sapiens, UniProt Q15375); test: KINOMEscan binding assay at 1 μM, EPHA7; conditions: Compound Concentration 1000 nM; read-out: Percent Control
T12 construct: purchased Eurofins DiscoverX KINOMEscan
Source text: as §1

PIK3CA(E545K) = biological target: T13, PIK3CA(E545K) (Homo sapiens, UniProt P42336, E545K); test: KINOMEscan at 1 μM, PIK3CA(E545K); type: binding; conditions: 1000 nM, read-out: Percent Control
T13 construct: purchased Eurofins DiscoverX KINOMEscan
Source text: as §1

[3] = biological target: T14, RPS6KA4(Kin.Dom.1-N-terminal) (Homo sapiens, UniProt O75676); test: DiscoverX KINOMEscan binding assay at 1 μM, RPS6KA4(Kin.Dom.1-N-terminal); conditions: Compound Concentration 1000 nM, read-out: Percent Control
T14 construct: RPS6KA4(Kin.Dom.1-N-terminal); purchased Eurofins DiscoverX KINOMEscan
Source text: (§2) Supplement cells-12-00287-s001.zip/File S2. KinomeScan data for the CAMKK2 probe and negative control.xlsx, sheet "SGC-CAMKK2-1" | column: Percent Control

EPHA2 = biological target: T15, EPHA2 (Homo sapiens, UniProt P29317); test: KINOMEscan 1 μM, EPHA2; type: binding; conditions: 1000 nM; Entrez EPHA2; read-out: Percent Control
T15 construct: purchased Eurofins DiscoverX KINOMEscan
Source text: as §2

BMPR1A = biological target: T16, BMPR1A (Homo sapiens, UniProt P36894); test: KINOMEscan 1 μM, BMPR1A; type: binding; conditions: 1000 nM; Entrez BMPR1A; read-out: Percent Control
T16 construct: purchased Eurofins DiscoverX KINOMEscan
Source text: as §2

PDPK1 = biological target: T17, PDPK1 (Homo sapiens, UniProt O15530); test: KINOMEscan 1 μM, PDPK1; type: binding; conditions: 1000 nM; Entrez PDPK1; read-out: Percent Control
T17 construct: purchased Eurofins DiscoverX KINOMEscan
Source text: as §2

PFPK5(P.falciparum) = biological target: T18, PFPK5(P.falciparum) (Plasmodium falciparum, UniProt P61075); test: DiscoverX KINOMEscan binding assay at 1 μM, PFPK5(P.falciparum); conditions: PFPK5(P.falciparum) (MAL13P1.279); Compound Concentration 1000 nM; read-out: Percent Control
T18 construct: purchased Eurofins DiscoverX KINOMEscan
Source text: as §2

TTK = biological target: T19, TTK (Homo sapiens, UniProt P33981); test: DiscoverX KINOMEscan binding assay at 1 μM, TTK; conditions: Compound Concentration 1000 nM, read-out: Percent Control
T19 construct: purchased Eurofins DiscoverX KINOMEscan
Source text: as §2

AKT3 = biological target: T20, AKT3 (Homo sapiens, UniProt Q9Y243); test: KINOMEscan 1 μM, AKT3; type: binding; conditions: 1000 nM; Entrez AKT3; read-out: Percent Control
T20 construct: purchased Eurofins DiscoverX KINOMEscan
Source text: as §2

FGFR4 = biological target: T21, FGFR4 (Homo sapiens, UniProt P22455); test: KINOMEscan 1 μM, FGFR4; type: binding; conditions: 1000 nM; Entrez FGFR4; read-out: Percent Control
T21 construct: purchased Eurofins DiscoverX KINOMEscan
Source text: as §2

BRK = biological target: T22, BRK (Homo sapiens, UniProt Q13882); test: KINOMEscan 1 μM, BRK; type: binding; conditions: 1000 nM; Entrez PTK6; read-out: Percent Control
T22 construct: purchased Eurofins DiscoverX KINOMEscan
Source text: as §2

DMPK2 = biological target: T23, DMPK2 (Homo sapiens, UniProt Q6DT37); test: KINOMEscan 1 μM, DMPK2; type: binding; conditions: 1000 nM; Entrez CDC42BPG; read-out: Percent Control
T23 construct: purchased Eurofins DiscoverX KINOMEscan
Source text: as §2

FGFR1 = biological target: T24, FGFR1 (Homo sapiens, UniProt P11362); test: KINOMEscan 1 μM, FGFR1; type: binding; conditions: 1000 nM; Entrez FGFR1; read-out: Percent Control
T24 construct: purchased Eurofins DiscoverX KINOMEscan
Source text: as §2

LYN = biological target: T25, LYN (Homo sapiens, UniProt P07948); test: KINOMEscan 1 μM, LYN; type: binding; conditions: 1000 nM; Entrez LYN; read-out: Percent Control
T25 construct: purchased Eurofins DiscoverX KINOMEscan
Source text: as §2

MUSK = biological target: T26, MUSK (Homo sapiens, UniProt O15146); test: KINOMEscan 1 μM, MUSK; type: binding; conditions: 1000 nM; Entrez MUSK; read-out: Percent Control
T26 construct: purchased Eurofins DiscoverX KINOMEscan
Source text: as §2

EGFR = biological target: T27, EGFR (Homo sapiens, UniProt P00533); test: KINOMEscan 1 μM, EGFR; type: binding; conditions: 1000 nM; Entrez EGFR; read-out: Percent Control
T27 construct: purchased Eurofins DiscoverX KINOMEscan
Source text: as §2

FRK = biological target: T28, FRK (Homo sapiens, UniProt P42685); test: KINOMEscan 1 μM, FRK; type: binding; conditions: 1000 nM; Entrez FRK; read-out: Percent Control
T28 construct: purchased Eurofins DiscoverX KINOMEscan
Source text: as §2

SNRK = biological target: T29, SNRK (Homo sapiens, UniProt Q9NRH2); test: KINOMEscan 1 μM, SNRK; type: binding; conditions: 1000 nM; Entrez SNRK; read-out: Percent Control
T29 construct: purchased Eurofins DiscoverX KINOMEscan
Source text: as §2

NEK4 = biological target: T30, NEK4 (Homo sapiens, UniProt P51957); test: KINOMEscan 1 μM, NEK4; type: binding; conditions: 1000 nM; Entrez NEK4; read-out: Percent Control
T30 construct: purchased Eurofins DiscoverX KINOMEscan
Source text: as §2

EPHA6 = biological target: T31, EPHA6 (Homo sapiens, UniProt Q9UF33); test: KINOMEscan 1 μM, EPHA6; type: binding; conditions: 1000 nM; Entrez EPHA6; read-out: Percent Control
T31 construct: purchased Eurofins DiscoverX KINOMEscan
Source text: as §2

CLK2 = biological target: T32, CLK2 (Homo sapiens, UniProt P49760); test: KINOMEscan 1 μM, CLK2; type: binding; conditions: 1000 nM; Entrez CLK2; read-out: Percent Control
T32 construct: purchased Eurofins DiscoverX KINOMEscan
Source text: as §2

T11 sequence (P42338 whole entry): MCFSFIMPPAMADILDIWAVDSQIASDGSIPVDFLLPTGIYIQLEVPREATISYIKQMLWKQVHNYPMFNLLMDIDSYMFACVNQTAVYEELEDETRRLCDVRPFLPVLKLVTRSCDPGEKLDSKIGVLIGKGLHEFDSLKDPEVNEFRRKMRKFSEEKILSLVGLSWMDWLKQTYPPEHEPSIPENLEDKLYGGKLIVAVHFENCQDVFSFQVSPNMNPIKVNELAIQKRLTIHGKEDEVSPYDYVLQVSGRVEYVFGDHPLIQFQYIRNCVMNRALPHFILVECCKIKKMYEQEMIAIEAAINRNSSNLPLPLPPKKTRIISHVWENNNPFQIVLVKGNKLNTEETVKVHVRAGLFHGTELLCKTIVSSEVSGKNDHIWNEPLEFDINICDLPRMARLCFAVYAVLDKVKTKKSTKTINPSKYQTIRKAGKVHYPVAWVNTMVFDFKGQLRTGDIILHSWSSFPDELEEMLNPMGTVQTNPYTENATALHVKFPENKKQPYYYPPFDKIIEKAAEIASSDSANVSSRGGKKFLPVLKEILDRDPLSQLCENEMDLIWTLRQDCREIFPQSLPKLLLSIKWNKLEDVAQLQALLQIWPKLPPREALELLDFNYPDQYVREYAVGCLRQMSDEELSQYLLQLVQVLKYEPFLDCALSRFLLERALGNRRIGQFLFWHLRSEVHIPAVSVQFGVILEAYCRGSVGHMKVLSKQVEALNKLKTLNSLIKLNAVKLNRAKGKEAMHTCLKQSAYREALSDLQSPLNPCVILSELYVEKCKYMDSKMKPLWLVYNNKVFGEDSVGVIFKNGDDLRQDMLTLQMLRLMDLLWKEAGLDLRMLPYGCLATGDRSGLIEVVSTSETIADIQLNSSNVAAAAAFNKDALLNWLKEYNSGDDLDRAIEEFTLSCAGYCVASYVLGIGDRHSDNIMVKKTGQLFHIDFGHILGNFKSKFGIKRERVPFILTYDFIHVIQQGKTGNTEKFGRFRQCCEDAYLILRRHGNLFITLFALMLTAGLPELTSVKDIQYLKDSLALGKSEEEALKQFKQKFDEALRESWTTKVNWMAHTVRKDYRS
T1 sequence (P57078 whole entry): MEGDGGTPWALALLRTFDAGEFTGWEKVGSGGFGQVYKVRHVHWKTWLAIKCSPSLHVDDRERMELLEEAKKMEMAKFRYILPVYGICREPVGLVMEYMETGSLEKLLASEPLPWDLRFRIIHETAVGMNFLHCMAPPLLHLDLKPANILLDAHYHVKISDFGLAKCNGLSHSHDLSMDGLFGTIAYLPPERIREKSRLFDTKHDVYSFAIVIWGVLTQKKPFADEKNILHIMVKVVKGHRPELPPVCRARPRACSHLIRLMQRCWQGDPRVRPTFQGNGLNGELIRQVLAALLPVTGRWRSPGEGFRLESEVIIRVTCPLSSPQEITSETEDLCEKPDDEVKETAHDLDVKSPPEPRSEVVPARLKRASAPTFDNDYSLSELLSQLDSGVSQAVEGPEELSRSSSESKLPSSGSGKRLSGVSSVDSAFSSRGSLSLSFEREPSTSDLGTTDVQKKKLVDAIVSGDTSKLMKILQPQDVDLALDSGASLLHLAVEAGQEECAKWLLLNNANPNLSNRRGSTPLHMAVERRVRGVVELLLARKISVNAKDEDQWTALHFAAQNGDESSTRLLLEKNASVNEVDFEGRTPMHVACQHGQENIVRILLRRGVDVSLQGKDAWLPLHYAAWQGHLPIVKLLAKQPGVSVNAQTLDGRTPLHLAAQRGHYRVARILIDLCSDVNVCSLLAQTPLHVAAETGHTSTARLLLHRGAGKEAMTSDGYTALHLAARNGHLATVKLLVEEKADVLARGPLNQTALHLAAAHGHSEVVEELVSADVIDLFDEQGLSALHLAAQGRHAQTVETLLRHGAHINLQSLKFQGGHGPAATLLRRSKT
T27 sequence (P00533 25-1210): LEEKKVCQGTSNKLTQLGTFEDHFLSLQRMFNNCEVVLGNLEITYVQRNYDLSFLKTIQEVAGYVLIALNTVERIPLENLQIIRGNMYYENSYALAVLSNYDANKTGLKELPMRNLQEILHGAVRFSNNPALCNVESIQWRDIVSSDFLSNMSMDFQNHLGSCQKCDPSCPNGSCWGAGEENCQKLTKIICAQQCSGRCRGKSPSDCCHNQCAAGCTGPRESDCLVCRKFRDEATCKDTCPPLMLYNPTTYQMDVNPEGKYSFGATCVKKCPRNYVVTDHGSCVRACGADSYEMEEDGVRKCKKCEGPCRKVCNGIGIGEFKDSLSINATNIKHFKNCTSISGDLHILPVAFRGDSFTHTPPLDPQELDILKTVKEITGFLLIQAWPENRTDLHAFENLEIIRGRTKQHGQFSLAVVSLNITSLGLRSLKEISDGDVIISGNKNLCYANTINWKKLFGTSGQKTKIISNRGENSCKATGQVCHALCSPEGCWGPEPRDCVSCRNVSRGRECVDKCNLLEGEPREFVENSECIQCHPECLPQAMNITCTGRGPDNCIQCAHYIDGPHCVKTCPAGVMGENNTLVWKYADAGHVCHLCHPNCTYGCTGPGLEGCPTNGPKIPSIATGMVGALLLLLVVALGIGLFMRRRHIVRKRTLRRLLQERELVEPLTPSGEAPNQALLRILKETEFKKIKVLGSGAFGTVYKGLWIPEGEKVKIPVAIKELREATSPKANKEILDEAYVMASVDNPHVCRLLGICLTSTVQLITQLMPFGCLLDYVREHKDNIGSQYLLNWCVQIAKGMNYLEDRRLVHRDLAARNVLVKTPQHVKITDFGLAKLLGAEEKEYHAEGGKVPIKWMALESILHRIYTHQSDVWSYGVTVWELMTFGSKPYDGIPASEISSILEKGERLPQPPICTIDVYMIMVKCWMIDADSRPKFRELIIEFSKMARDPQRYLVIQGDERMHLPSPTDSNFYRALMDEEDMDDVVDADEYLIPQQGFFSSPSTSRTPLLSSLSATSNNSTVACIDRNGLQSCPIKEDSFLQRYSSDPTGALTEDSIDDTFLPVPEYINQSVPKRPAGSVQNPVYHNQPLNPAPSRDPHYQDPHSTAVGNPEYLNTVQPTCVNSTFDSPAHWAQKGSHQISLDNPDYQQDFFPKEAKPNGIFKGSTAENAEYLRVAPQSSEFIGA
T31 sequence (Q9UF33 23-1036): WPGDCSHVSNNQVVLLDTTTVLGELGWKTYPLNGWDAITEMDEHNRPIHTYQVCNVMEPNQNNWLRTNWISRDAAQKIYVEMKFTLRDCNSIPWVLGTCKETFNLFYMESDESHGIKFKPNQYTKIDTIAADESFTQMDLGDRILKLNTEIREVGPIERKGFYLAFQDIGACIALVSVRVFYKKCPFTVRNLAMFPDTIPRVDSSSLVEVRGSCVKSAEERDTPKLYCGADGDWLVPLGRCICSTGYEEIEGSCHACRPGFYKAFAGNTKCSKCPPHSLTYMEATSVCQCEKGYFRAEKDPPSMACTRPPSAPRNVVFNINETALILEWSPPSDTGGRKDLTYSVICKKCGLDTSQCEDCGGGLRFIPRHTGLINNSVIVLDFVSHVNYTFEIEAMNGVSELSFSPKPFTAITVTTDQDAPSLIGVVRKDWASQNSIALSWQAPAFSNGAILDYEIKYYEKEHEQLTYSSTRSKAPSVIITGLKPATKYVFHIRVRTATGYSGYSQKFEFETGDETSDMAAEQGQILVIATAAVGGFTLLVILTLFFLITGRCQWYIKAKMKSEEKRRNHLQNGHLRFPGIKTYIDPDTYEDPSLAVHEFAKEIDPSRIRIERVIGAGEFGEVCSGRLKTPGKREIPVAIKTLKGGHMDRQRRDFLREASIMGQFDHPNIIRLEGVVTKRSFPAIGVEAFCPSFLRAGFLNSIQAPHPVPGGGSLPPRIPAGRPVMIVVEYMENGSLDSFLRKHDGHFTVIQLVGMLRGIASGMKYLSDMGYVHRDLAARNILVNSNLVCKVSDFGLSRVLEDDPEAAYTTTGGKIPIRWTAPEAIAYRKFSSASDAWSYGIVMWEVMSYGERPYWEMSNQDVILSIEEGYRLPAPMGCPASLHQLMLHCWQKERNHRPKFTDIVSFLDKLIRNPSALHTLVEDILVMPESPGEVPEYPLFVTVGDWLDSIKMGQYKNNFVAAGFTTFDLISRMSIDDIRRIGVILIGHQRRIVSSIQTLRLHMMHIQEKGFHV
T12 sequence (Q15375 28-998): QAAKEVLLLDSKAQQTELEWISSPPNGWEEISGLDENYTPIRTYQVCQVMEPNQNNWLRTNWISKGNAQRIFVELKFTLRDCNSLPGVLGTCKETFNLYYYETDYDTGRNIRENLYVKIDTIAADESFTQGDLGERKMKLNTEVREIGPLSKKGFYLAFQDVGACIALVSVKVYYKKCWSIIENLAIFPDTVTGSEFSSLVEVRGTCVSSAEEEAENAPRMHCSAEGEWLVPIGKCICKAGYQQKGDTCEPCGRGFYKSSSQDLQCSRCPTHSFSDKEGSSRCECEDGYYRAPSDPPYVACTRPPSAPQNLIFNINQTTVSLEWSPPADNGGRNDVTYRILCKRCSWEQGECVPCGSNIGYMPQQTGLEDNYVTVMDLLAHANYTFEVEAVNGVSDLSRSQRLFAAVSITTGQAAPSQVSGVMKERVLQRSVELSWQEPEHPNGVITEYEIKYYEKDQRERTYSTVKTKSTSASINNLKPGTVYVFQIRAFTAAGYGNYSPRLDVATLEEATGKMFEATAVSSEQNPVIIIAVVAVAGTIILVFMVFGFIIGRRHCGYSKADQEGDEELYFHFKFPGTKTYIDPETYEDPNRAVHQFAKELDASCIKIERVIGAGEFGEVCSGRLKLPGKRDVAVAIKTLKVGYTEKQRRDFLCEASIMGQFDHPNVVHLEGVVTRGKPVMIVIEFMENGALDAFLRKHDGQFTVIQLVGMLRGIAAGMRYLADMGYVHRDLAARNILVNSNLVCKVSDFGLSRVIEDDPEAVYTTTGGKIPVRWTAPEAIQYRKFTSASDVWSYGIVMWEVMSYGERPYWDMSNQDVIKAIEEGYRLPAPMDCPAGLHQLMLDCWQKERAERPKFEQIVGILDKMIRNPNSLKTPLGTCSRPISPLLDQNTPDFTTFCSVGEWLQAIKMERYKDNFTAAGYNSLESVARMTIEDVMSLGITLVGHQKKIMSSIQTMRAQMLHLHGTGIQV

`O=C(O)c1ccc(-c2coc3ncc(-c4ccccc4)cc23)cc1Cl` [SGC-CAMKK2-1N (UNC-YL-83)] was tested, and the remaining binding at 1 µM (RIPK4) was 70%, the remaining binding at 1 µM (EGFR(T790M)) was 85% and the remaining binding at 1 µM (PLK2) was 91%. The remaining binding at 1 µM (AURKC) was 90%, the remaining binding at 1 µM (ERK4) was 58% and the remaining binding at 1 µM (EPHB2) was 100%. For the same compound, the remaining binding at 1 µM (ROS1) was 100%, the remaining binding at 1 µM [1] was 94% and the remaining binding at 1 µM [2] was 74%. It also gave a remaining binding at 1 µM (MEK6) of 46%, a remaining binding at 1 µM (PIK3CB) of 67% and a remaining binding at 1 µM (EPHA7) of 100%. For the same compound, the remaining binding at 1 µM (PIK3CA(E545K)) was 93%.

Work on `Cc1cccc(-c2cnc3occ(-c4ccc(C(=O)O)c(C5CCCC5)c4)c3c2)c1` [SGC-CAMKK2-1 (YL-36)] yielded a remaining binding at 1 µM [3] of 100%, a remaining binding at 1 µM (EPHA2) of 100% and a remaining binding at 1 µM (BMPR1A) of 100%. It also gave a remaining binding at 1 µM (PDPK1) of 95%, a remaining binding at 1 µM (PFPK5(P.falciparum)) of 100% and a remaining binding at 1 µM (TTK) of 100%. The remaining binding at 1 µM (AKT3) was 100%, the remaining binding at 1 µM (FGFR4) was 98% and the remaining binding at 1 µM (BRK) was 100%. It also gave a remaining binding at 1 µM (DMPK2) of 97%, a remaining binding at 1 µM (FGFR1) of 100% and a remaining binding at 1 µM (LYN) of 100%. It also gave a remaining binding at 1 µM (MUSK) of 84%, a remaining binding at 1 µM (EGFR) of 91% and a remaining binding at 1 µM (FRK) of 100%. The remaining binding at 1 µM (SNRK) was 94%, the remaining binding at 1 µM (NEK4) was 100% and the remaining binding at 1 µM (EPHA6) was 100%. The remaining binding at 1 µM (CLK2) was 79%.
